Experimental data reported in patent US20250145946A1, “GENERATION OF PURE RETINAL CELLS FROM HUMAN PLURIPOTENT STEM CELLS” (Wisconsin Alumni Research Foundation, priority 2023, published 2025).

How the values were obtained:
[1] = test system: H9 human embryonic stem cells (hESCs); assay: qPCR analysis of neural and retinal gene expression during hPSC neural/retina differentiation; type: cell-based
Protocol: hPSCs (H9, IMR-90-4 and WC30) were maintained under E8/feeder-free culture condition and passaged at 1:20 ratio with Rock inhibitor. After each new passage, the cells were fed with E8 medium for another 1˜2 days to reach 30-40% confluence. To initiate retina differentiation, culture medium was replaced with Retina Induction Medium (RIM) containing Neural induction medium (NIM) comprising DMEM/F12 media containing 1% N2 and 1× nonessential amino acids (NEAA) supplemented with 10 μM SB431542 (TGF inhibitor, Stemgent, 04-0010-10); this new passage day was counted as day 0 (DO) of retina differentiation. Cells were then fed daily with RIM, or every other day based on the cell density. On day 4, the cells were dissociated by ReLeSR (STEM CELL) or EDTA and re-suspended in the fresh RIM containing 0.5 micromolar (μM) Rock inhibitor. Cell clusters were thereafter transferred to a cell culture flask and cultured in suspension. On day 5, the resulting cell spheres were fed with RIM without SB431542. […] At day 20, the spheres were cultured in Transition medium (DMEM/F12: Neurobasal (1:1) with 1% N2, 2% B27, 1×NEAA and 1×Glutamax) until analysis.
Total RNA was isolated with the RNeasy Plus Mini Kit according to the manufacturer's instructions. For quantitative PCR (qPCR), cDNA was synthesized using PrimeScript RT Reagent Kit (Takara). qPCR was performed using iTaq Universal SYBR Green Supermix (Bio-Rad). GAPDH gene was used as an internal control to equalize cDNA.
H9 human embryonic stem cells (hESCs) were differentiated to neuroepithelia by culture in chemically defined media as disclosed above and then treated with inhibitors against BMP (DMH1), TGF-beta (SB-431542, SB), or WNT (IWR1) pathways separately for 6 days during the neural induction process (FIG. 2a).
Because SOX1 expression was known to be absent in retinal progenitors (also shown in FIG. 7a), expression of SOX2 and SOX1 presented a simple determining marker for cortical vs. retinal progenitors.

[2] = test system: hPSCs; assay: Single nucleus RNA-seq (snRNA-Seq) profiling of differentiating cells; type: cell-based, human; conditions: day 12
Protocol: Differentiating cells at multiple time points (day 0-day 12) indicated below were digested and collected for nucleus isolation and library construction (Tao et al., 2024, Nat. Biotech. 12:1404-1416; https://doi.org/10.1038/s41587-023-01977-4). All libraries prepared in this way were processed by NovaSeq. Alignment of raw sequencing reads, and generation of feature barcode matrices were performed using Cellranger (7.1.0). Seurat (4.1.3) was used to process feature barcode matrices and analyze snRNA-Seq data32. All samples were processed under standard quality control metrics. Single cells with more than 300 unique genes (nFeature) and less than 15% or 20% mitochondrial gene reads (percent.mt) were selected for follow-up analysis. Additional procedures were used to exclude low quality cells and doublets in each sample (nFeature<6,000 and nCount<20,000). […] After quality control, all snRNA-Seq data were normalized using the SCTransform (v2) function in Seurat with mitochondria genes regressed out (Choudhary, S. et al., 2022, Genome Biol 23, 27). PCA and UMAP reduction, gene feature plots were done by using Seurat as well.
Single nucleus RNA-seq (snRNA-Seq) assays were performed to profile and compare the differentiating cells under the SB or SB+DMH1 conditions (FIG. 2d). On day 6, after filtering low quality and dead cells, 8,533 and 9,756 cells in the SB and SB+DMH1 groups were collected, respectively. Uniform manifold approximation and projection (UMAP) clustering identified 11 clusters in both conditions (FIG. 2e).
To verify this observation, cells were differentiated with only SB for the first 6 days to generate primitive neuroepithelial cells and then how the BMP pathway regulated retinal differentiation was investigated by treating the cells with or without DMH1 at day 6 (FIG. 2d). Cell nuclei were collected on day 12 for snRNA-Seq to compare differentiating cells in the control (medium without inhibitors) and under DMH1 conditions. […] UMAP clustering identified 13 clusters (FIGS. 2h-2j, FIG. 10a).

[3] = test system: H9 human embryonic stem cells (hESCs); assay: Flow cytometry of differentiating cells for SOX2, SOX1 and PAX6; type: cell-based; conditions: day 12; FIG. 8a
Protocol: Flow cytometry was performed following manufacturer's instruction using Transcription Factor Buffer Set which is designed for transcription factor staining. Briefly, single cells were prepared using TrypLE Express Enzyme and fixed in the fixation buffer provided in the kit at 2-8° C. for 45 min. After 3 washings with the permeable buffer, the primary antibodies were added to cells for 45 min at 2-8° C. in a light-tight box. The cells were washed 3 times before incubation with fluorescently conjugated secondary antibodies for 45 mins at 2-8° C. in a light-tight box. After 3 times of washing, cells were suspended in the washing buffer and analyzed by flow cytometry (BD LSR or BD LSRII). Data analysis was performed using FlowJo. Antibodies used were: SOX2 (R&D Systems AF2018), SOX1 (R&D Systems AF3369), PAX6 Alexa Fluor 488 (BD Biosciences Cat #561664), SOX2-V450 (BD Biosciences Cat #561610), SOX1-PE (BD Biosciences Cat #561592), PAX6 (Covance Cat #PRB-278P), VSX2 (Exalpha, Cat #X1180P), CRX (Abnova, Cat #H00001406-M02), OPSIN (MilliporeSigma, Cat #AB5407). Due to the lack of retinal differentiation resulting from BMP inhibition, expression of retina genes was examined at multiple time points in SB and SB plus dorsomorphin homolog 1 (SB+DMH1), which was a well-established dual-SMAD inhibition condition for neural conversion (Chambers, S. M. et al., 2009, Nat Biotechnol 27:275-280). […]

[4] = inhibitor for 6 days during neural induction, vs control, qPCR, FIG. 2b
[5] = SB day 0-5, then DMH1 from day 6, vs control
[6] = inhibitor for 6 days during neural induction, qPCR, FIG. 2b

For `CC(C)Oc1ccc(-c2cnc3c(-c4ccnc5ccccc45)cnn3c2)cc1` [DMH1], the “expression of neural genes including PAX6 and SOX1” value [1, 4] was “efficiently induced”, the “expression of retinal lineage-specific markers RAX and VSX2” value [1, 4] was “did not show much change” and the GLI3 expression [2, 5] was “downregulated”. The “MKI67 and NES expression levels in progenitor clusters” value [2, 5] was “much lower”, the “expression of EFTFs PAX6, LHX2, SIX3 and OTX2” value [2, 5] was “much lower or even absent” and the “expression of BMP target genes ID1/2/4” value ([2]; SB day 0-5, then DMH1 from day 6, FIG. 10b) was “much lower levels”.

For `O=C(Nc1cccc2cccnc12)c1ccc(N2C(=O)[C@@H]3[C@H](C2=O)[C@@H]2C=C[C@H]3C2)cc1` [IWR1], the “effect on retinal differentiation” value [1, 6] was “did not have much effect”.

`NC(=O)c1ccc(-c2nc(-c3ccc4c(c3)OCO4)c(-c3ccccn3)[nH]2)cc1` [SB] was tested, and the “expression of retinal lineage-specific markers RAX and VSX2” value [1, 4] was “highest expression level”, the “expression of SOX1 (definitive neuroepithelial marker)” value [1, 6] was “low expression” and the “expression pattern of SOX1 over time” value ([1]; time course after day 6, SB condition vs BMP2 administration, FIG. 3c) was “increased steadily”. For the same molecule, the “SOX1 and SOX2 double positive cells (definitive neuroepithelial cells)” value [3] was 14%.
